Results on 6 molecules are retold here after patent US6761896B1, “Skin cosmetic care system and method” (Unilever Home & Personal Care USA, division of Conopco, Inc., priority 1998, dated 2004).

“And” between values parts separate entries of the source, which are not always exact repeats. Equal entries are not always repeated.

What all share (assay type): cell-based
One data set deals with MelanoDerm MEL-300. As to the kind of experiment: Pigmentation in MelanoDerm Living Skin Equivalent (blue colour image analysis). Conditions: for effect of South pole magnetism on skin depigmenting action: Kojic acid 500, Yohimbine 25, Ascorbic acid 285 micro-molar, magnet vs no magnet, p<0.05; for Pigmentation Reduction Magnet % South Pole (B): day 14, South Pole magnet; for Pigmentation Reduction Magnet % South Pole (B) / Pigmentation Reduction % No Magnet (A): individual tissues; for Pigmentation Reduction % No Magnet (A): day 14, no magnet, relative to untreated control. On the procedure:
Kojic acid, Vitamin C, and Yohimbine were examined for their ability to reduce pigmentation in the MelanoDerm Living Skin Equivalent in the presence and absence of South Pole magnetism. After 14 days of incubation, during which one series of tissues was exposed to South Pole magnetism and an equivalent duplicate series was not, the melanin color formed in each tissue was estimated using primary color image analysis.
MelanoDerm™ MEL-300, a 3-dimensional epidermal model containing functioning melanoctyes produced by MatTek Corporation, Ashland, Mass., was the tissue used for this experiment. Each MEL-300 kit has 24 tissue pieces.
Three depigmenting actives were added to the Melanoderm incubation medium at the following final concentrations,
Two (2) MEL-300 kits, each with 24 tissue pieces, were prepared with identical application of actives. Each active, Vitamin C, Kojic acid & Yohimbine, was applied to the incubation medium of 5 tissues at the concentrations specified above. 4 tissues were untreated. […] One Mel-300 kit prepared as above was placed on the 6 inch×4 inch South Pole surface of the Ferrimag magnet for incubation, and the identical second Mel-300 kit was incubated at the opposite side (top left vs bottom right) of the same incubator and additionally shielded from the magnet.
The tissues were incubated for 14 days in maintenance medium at 37 degrees centigrade and a constant atmosphere (5%CO2). The maintenance medium and actives were replenished 4 times weekly. At 7 days, 2 tissues were removed from each active and control group leaving 3 tissues in each group (2 in the untreated group) for day 14 evaluation.
At the day 14 completion of the experiment the tissue pieces of each Mel-300 incubation plate were photographed from above. Each tissue appeared as a small disc varying in brown color intensity. The photographs of two Mel-300 incubation plates (one incubated on the magnet and one without magnetism) were scanned into a Pentium II computer and the color primary color content of each disc was measured using a color analysis macro within an Optimas image quantification software package. The blue color content was used as an index of melanin pigment (preliminary experiments confirmed that the principle primary color of melanin is blue using this image analysis system—this was established by comparing brown freckles and age spots with surrounding non-pigmented skin in color photographs of Caucasian human skin). The blue color intensity scale is 0-255 where 0 is saturation with blue color and 255 is total absence of blue color. The actual blue scale reading of each tissue sample was converted to a % blue value by computing it's proportion of the full range of 0to 255.

For the next data set, the system named is IL1-a. As to the kind of experiment: IL1-a release by MelanoDerm Living Skin Equivalents (Elisa). Details: IL1-a(i) / IL1-a(ii): unit not given here. The conditions noted are these: 0.5% phytic acid; for IL1-a release % Untreated: 24 hr; for IL1-a(i): first determination; for IL1-a(i) / IL1-a(ii): individual tissues; for IL1-a Mean: mean of (i) and (ii); for IL1-a(ii): second determination 7 days later. Here is the method:
(§1) Phytic acid (0.5%) was examined for its effect on cytokine release by MelanoDerm Living Skin Equivalents in the presence and absence of South Pole magnetism. After 24 hours incubation, during which one set of tissues was exposed to South Pole magnetism and an equivalent duplicate series was not, the culture medium was assayed for IL1-a and PGE-2. In the absence of magnetism there was a significant increase in medium concentration of both IL1-a and PGE-2. These increases were suppressed in the presence of South pole magnetism. Living Skin Equivalent: MelanoDermTM MEL-300, a 3-dimensional epidermal model containing functioning melanoctyes produced by MatTek Corporation, Ashland, Mass., was the tissue used for this experiment. Fifty (50) microliters of phytic acid solution (0.5%) was applied to the stratum corneum surface of 4 MEL-300 tissues. Eight (8) untreated MEL-300 tisues served as controls. Half the tissues (i.e. 2 phytic acid and 4 untreated controls) were placed on the 6 inch×4 inch South Pole surface of the […] magnet for 24 hours incubation (37 degrees centigrade; 5% CO2). After the 24 hr incubation the tissues were removed from the incubation medium and assayed for MTT to confirm tissue viability. The incubation medium was assayed for content of cytokines IL1-a and PGE-2. The tissue samples were refrigerated and a second determination of cyotkines was made 7 days later. The cytokine assays were performed using commercially available 96 well Elisa kits.

In the next data set the test system is PGE-2. As to the kind of experiment: PGE-2 release by MelanoDerm Living Skin Equivalents (Elisa). Further details: PGE-2(i) / PGE-2 (ii): unit not given beside the values. The conditions noted are these: 0.5% phytic acid; for PGE-2 release % Untreated: 24 hr; for PGE-2(i): first determination; for PGE-2(i) / PGE-2 (ii): individual tissues; for PGE-2 Mean: mean of (i) and (ii); for PGE-2 (ii): second determination 7 days later. On the procedure: as §1

The next data set relates to MelanoDerm tissue. As to the kind of experiment: MelanoDerm tissue viability by MTT. The conditions noted are these: 0.5% in water, preliminary experiment. On the procedure: Phytic acid was tested at a concentration of 0.5% in water.
The next data set relates to human sebocytes. Briefly: Lipid production by sebocytes in vitro (14C-acetate incorporation). The conditions noted are these: for % Reduction: vs control of same plate. Here is the method: This example measured the effect of various actives in combination with magnets on lipid production by sebocytes in vitro.
Secondary cultures of human sebocytes obtained from an adult […] were grown in the inner 24 wells of 48-well tissue culture plates (Costar Corp.; Cambridge, Mass.) until confluent. Sebocyte growth medium consisted of Clonetics Keratinocyte Basal Medium (KBM) supplemented with 14 ug/ml bovine pituitary extract, 0.4 ug/ml hydrocortisone, 5 ug/ml insulin, 10 ng/ml epidermal growth factor, 1.2×10^−10 M cholera toxin, 100 units/ml penicillin, and 100 ug/ml streptomycin. All cultures were incubated at 37° C. in the presence of 7.5% CO2. Medium was changed three times per week.
On the first day of experimentation, the growth medium was removed and the sebocytes washed three times with sterile Dulbecco's Modified Eagle Medium (DMEM; phenol red free). Fresh DMEM was added to each sample (triplicates) with 5 microliter of test agent solubilized in ethanol (312.5 uM iso-tridecylsalicylate or 10 uM Retinyl Linoleate; 6 replicates for each sample). Controls consisted of addition of ethanol alone. Each magnet was sandwiched between 2 plates for 24 hours. For 2 of the sebocyte plates, the configuration was North magnet pointing up, for 2 other plates, the configuration was reversed (South magnet up), and one plate served as a control (no presence of magnets).
After 24 hours, addition of ^14C-acetate buffer (5 mM final concentration, 56 mCi/mmol specific activity) was performed. Sebocytes were then returned to the incubator for four hours after which each culture was rinsed three times with phosphate buffered saline to remove unbound label. Radioactive label remaining in the sebocytes was harvested and counted using a Beckman scintillation counter.

[1] abbreviates: No Magnetism, increase over untreated.
[2] abbreviates: 10 uM Retinyl Linoleate, Plate A: No Magnet Presence.
Setting [3] is: 10 uM Retinyl Linoleate, Plate B: North Magnet Up (Top Plate).
The mark [4] stands for this setting: 10 uM Retinyl Linoleate, Plate C: North Magnet Up (Bottom Plate).
[5] abbreviates: 10 uM Retinyl Linoleate, Plate D: South Magnet Up (Top Plate).
Setting [6] is: 10 uM Retinyl Linoleate, Plate E: South Magnet Up (Bottom Plate).
Where [7] appears, read: 312.5 uM TDS, Plate A: No Magnet Presence.
[8] abbreviates: 312.5 uM TDS, Plate B: North Magnet Up (Top Plate).
Setting [9] is: 312.5 uM TDS, Plate C: North Magnet Up (Bottom Plate).
Where [10] appears, read: 312.5 uM TDS, Plate D: South Magnet Up (Top Plate).
Where [11] appears, read: 312.5 uM TDS, Plate E: South Magnet Up (Bottom Plate).

Take `O=c1cc(CO)occ1O` [Kojic Acid, Kojic acid]: the “effect of South pole magnetism on skin depigmenting action” value (shortened to “effect of South pole magnetism”) in the data set with MelanoDerm MEL-300 is recorded as “enhances”. In addition, in the data set on MelanoDerm MEL-300 (Kojic acid 500 micro-molar), the “Mean A-B (Mean Difference)” value is given as −2.06; the “Pigmentation Reduction Magnet % South Pole (B)” value was −9.21% and −10.02% and 4.75%; the “Pigmentation Reduction % No Magnet (A)” value was −4.77% and −8.72% and −4.27%.

`O=P(O)(O)O[C@H]1[C@H](OP(=O)(O)O)[C@@H](OP(=O)(O)O)[C@H](OP(=O)(O)O)[C@@H](OP(=O)(O)O)[C@H]1OP(=O)(O)O` [Phytic acid]: the “IL1-a release % Untreated” value in the data set with IL1-a (+ South Pole Magnetism, increase over untreated plus magnet) is 16%. In addition, the “IL1-a release % Untreated” value in the data set on IL1-a (setting [1]) came out at 99%. In the data set with IL1-a (South Pole magnet), the “IL1-a(i)” value was 239.1 and 108.9; the “IL1-a Mean” value is given as 151.2 +/− 64; the “IL1-a(ii)” value was 158.2 and 98.4. In the data set with IL1-a (no magnet), the “IL1-a(i)” value is 285.3 and 222.9; the “IL1-a Mean” value is 209 +/− 61; the “IL1-a(ii)” value was 186.2 and 141.1. The “PGE-2 release % Untreated” value in the data set with PGE-2 (+ South Pole Magnetism, change over untreated plus magnet) was −2%. The “PGE-2 release % Untreated” value with PGE-2 (setting [1]) stood at 191%. In the data set on PGE-2 (South Pole magnet), the “PGE-2(i)” value is 2056 and 2387; the “PGE-2 Mean” value was 2093 +/− 208; the “PGE-2 (ii)” value was 1899 and 2030. In the data set on PGE-2 (no magnet), the “PGE-2(i)” value was 5326 and 4673; the “PGE-2 Mean” value is 5136 +/− 421; the “PGE-2 (ii)” value was 5621 and 4923. For the same molecule, the “toxicity to MelanoDerm tissue (tissue viability by MTT)” value in the data set on MelanoDerm tissue is “non-toxic”.

Regarding `CCCCC/C=C\C/C=C\CCCCCCCC(=O)OC/C=C(C)/C=C/C=C(C)/C=C/C1=C(C)CCCC1(C)C` [Retinyl Linoleate], the “DPMs (AVG)” value is recorded as 4198.1 DPMs in the data set with human sebocytes (setting [2]); 4123.0 DPMs with human sebocytes (setting [3]); 3660.1 DPMs in the data set with human sebocytes (setting [4]); 3619.4 DPMs in the data set with human sebocytes (setting [5]); 3181.1 DPMs in the data set on human sebocytes (setting [6]). Moreover, the “% Reduction” value in the data set with human sebocytes (setting [2]) is recorded as 3.9%; in the data set on human sebocytes (setting [3]), 6.5%; with human sebocytes (setting [4]) it was 1.8%; with human sebocytes (setting [5]), −1.6%; in the data set on human sebocytes (setting [6]), 5.6%.

Take `O=C1O[C@H]([C@@H](O)CO)C(O)=C1O` [Vitamine C, Ascorbic acid]: in the data set with MelanoDerm MEL-300 (Ascorbic acid 285 micro-molar), the “Mean A-B (Mean Difference)” value is recorded as −3.97; the “Pigmentation Reduction Magnet % South Pole (B)” value was −6.18% and −6.34% and −4.55%; the “Pigmentation Reduction % No Magnet (A)” value is −4.21% and −2.65% and 1.7%. Moreover, the “effect of South pole magnetism” value in the data set with MelanoDerm MEL-300 is “enhances”.

Regarding `COC(=O)[C@@H]1[C@H]2C[C@H]3c4[nH]c5ccccc5c4CCN3C[C@@H]2CC[C@@H]1O` [Yohimbine], in the data set with MelanoDerm MEL-300, the “effect of South pole magnetism” value is “enhances”. Moreover, in the data set on MelanoDerm MEL-300 (Yohimbine 25 micro-molar), the “Mean A-B (Mean Difference)” value is given as −3.27; the “Pigmentation Reduction Magnet % South Pole (B)” value is −2.55% and −8.08% and −6.76%; the “Pigmentation Reduction % No Magnet (A)” value is 1.85% and −5.63% and −3.8%.

Take iso-tridecylsalicylate [TDS]: the “DPMs (AVG)” value is on record as 2913.0 DPMs in the data set with human sebocytes (setting [7]); 3367.8 DPMs in the data set with human sebocytes (setting [8]); 3543.9 DPMs in the data set on human sebocytes (setting [9]); 3040.0 DPMs with human sebocytes (setting [10]); 2677.4 DPMs in the data set with human sebocytes (setting [11]). Also, the “% Reduction” value in the data set with human sebocytes (setting [7]) is 36.3%; in the data set on human sebocytes (setting [8]) it was 23.6%; in the data set with human sebocytes (setting [9]) it was 4.9%; in the data set with human sebocytes (setting [10]), 14.7%; with human sebocytes (setting [11]) it was 20.5%.
